Source: ChEMBL document CHEMBL1158340, “Organoiodine (III)-mediated synthesis of 3-aryl/heteroaryl-5,7-dimethyl-1,2,4-triazolo[4,3-c]pyrimidines as antibacterial agents” (2009)
Values after ≈ are worked out from the molar mass of the structure shown. Active and inactive are the calls of the source. The rule behind the calls is not given here.

How the values were obtained:
Assay type in all cases: functional
[1] = tested on: Geobacillus stearothermophilus; assay: Antibacterial activity against Bacillus stearothermophilus MTCC 8508 after 24 hrs; conditions: MTCC 8508, 24 h
[2] = tested on: Geobacillus stearothermophilus; assay: Antibacterial activity against Bacillus stearothermophilus MTCC 8508 at 100 ug/mL by agar well diffusion method; conditions: read-out: DIZ
Pseudomonas putida [3] = assay: Antibacterial activity against Pseudomonas putida MTCC 121 at 10 ug/mL by agar well diffusion method; conditions: for zone of inhibition at 10 µg/mL: read-out: DIZ
Bacillus subtilis [4] = assay: Antibacterial activity against Bacillus subtilis MTCC 8509 after 24 hrs; conditions: MTCC 8509, 24 h
[5] = tested on: Geobacillus stearothermophilus; assay: Antibacterial activity against Bacillus stearothermophilus MTCC 8508 at 50 ug/mL by agar well diffusion method; conditions: for zone of inhibition at 50 µg/mL: read-out: DIZ
Bacillus subtilis [6] = assay: Antibacterial activity against Bacillus subtilis MTCC 8509 at 10 ug/mL by agar well diffusion method; conditions: for zone of inhibition at 10 µg/mL: read-out: DIZ
Pseudomonas putida [7] = assay: Antibacterial activity against Pseudomonas putida MTCC 121 at 50 ug/mL by agar well diffusion method; conditions: read-out: DIZ
Bacillus subtilis [8] = assay: Antibacterial activity against Bacillus subtilis MTCC 8509 at 50 ug/mL by agar well diffusion method; conditions: for zone of inhibition at 50 µg/mL: read-out: DIZ
Pseudomonas putida [9] = assay: Antibacterial activity against Pseudomonas putida MTCC 121 at 100 ug/mL by agar well diffusion method; conditions: read-out: DIZ
[10] = tested on: Geobacillus stearothermophilus; assay: Antibacterial activity against Bacillus stearothermophilus MTCC 8508 at 10 ug/mL by agar well diffusion method; conditions: for zone of inhibition at 10 µg/mL: read-out: DIZ
Escherichia coli [11] = assay: Antibacterial activity against Escherichia coli MTCC 51 after 24 hrs; conditions: MTCC 51, 24 h
Pseudomonas putida [12] = assay: Antibacterial activity against Pseudomonas putida MTCC 121 after 24 hrs; conditions: MTCC 121, 24 h
Bacillus subtilis [13] = assay: Antibacterial activity against Bacillus subtilis MTCC 8509 at 100 ug/mL by agar well diffusion method; conditions: read-out: DIZ
Escherichia coli [14] = assay: Antibacterial activity against Escherichia coli MTCC 51 at 50 ug/mL by agar well diffusion method; conditions: for zone of inhibition at 50 µg/mL: read-out: DIZ
Escherichia coli [15] = assay: Antibacterial activity against Escherichia coli MTCC 51 at 100 ug/mL by agar well diffusion method; conditions: read-out: DIZ
Escherichia coli [16] = assay: Antibacterial activity against Escherichia coli MTCC 51 at 10 ug/mL by agar well diffusion method; conditions: for zone of inhibition at 10 µg/mL: read-out: DIZ

| SMILES | MIC [1] | MIC (Bacillus subtilis [4]) | MIC (Escherichia coli [11]) | MIC (Pseudomonas putida [12]) | zone of inhibition at 100 µg/mL [2] | zone of inhibition at 10 µg/mL (Pseudomonas putida [3]) | zone of inhibition at 50 µg/mL [5] | zone of inhibition at 10 µg/mL (Bacillus subtilis [6]) | zone of inhibition at 50 µg/mL (Pseudomonas putida [7]) | zone of inhibition at 50 µg/mL (Bacillus subtilis [8]) | zone of inhibition at 100 µg/mL (Pseudomonas putida [9]) | zone of inhibition at 10 µg/mL [10] | zone of inhibition at 100 µg/mL (Bacillus subtilis [13]) | zone of inhibition at 50 µg/mL (Escherichia coli [14]) | zone of inhibition at 100 µg/mL (Escherichia coli [15]) | zone of inhibition at 10 µg/mL (Escherichia coli [16]) | Activity (Pseudomonas putida [3]) | Activity (Bacillus subtilis [6]) | other results |
| --- | --- | --- | --- | --- | --- | --- | --- | --- | --- | --- | --- | --- | --- | --- | --- | --- | --- | --- | --- |
| Cc1cc2nnc(-c3ccc(Br)cc3)n2c(C)n1 | 8 µg/mL (≈ 26.4 µM) | 8 µg/mL (≈ 26.4 µM) | 16 µg/mL (≈ 52.8 µM) | 4 µg/mL (≈ 13.2 µM) | 60.7 mm | 28.3 mm | 41.7 mm | 27.7 mm | 48.7 mm | 40.7 mm | 66.7 mm | 26.7 mm | 59.3 mm | 31.7 mm | 47.3 mm | 23.3 mm | – | – | – |
| CN[C@@H]1[C@H](O[C@H]2[C@H](O[C@H]3[C@H](O)[C@@H](O)[C@H](N=C(N)N)[C@@H](O)[C@@H]3N=C(N)N)O[C@@H](C)[C@]2(O)C=O)O[C@@H](CO)[C@H](O)[C@H]1O [STREPTOMYCIN] | 2 µg/mL (≈ 3.44 µM) | 2 µg/mL (≈ 3.44 µM) | 4 µg/mL (≈ 6.88 µM) | 4 µg/mL (≈ 6.88 µM) | 67.2 mm | 38.2 mm | 49.2 mm | 36.4 mm | 48.2 mm | 57.4 mm | 72.2 mm | 33.2 mm | 73.2 mm | 49.4 mm | 69.4 mm | 26.4 mm | – | – | – |
| Cc1cc2nnc(-c3cccnc3)n2c(C)n1 | 8 µg/mL (≈ 35.5 µM) | 4 µg/mL (≈ 17.8 µM) | 8 µg/mL (≈ 35.5 µM) | 2 µg/mL (≈ 8.88 µM) | 56.3 mm | 36.7 mm | 39.7 mm | 29.3 mm | 59.3 mm | 46.3 mm | 69.7 mm | 25.3 mm | 65.7 mm | 39.3 mm | 57.3 mm | 25.7 mm | – | – | – |
| COc1cc(O)ccc1-c1nnc2cc(C)nc(C)n12 | 4 µg/mL (≈ 14.8 µM) | 8 µg/mL (≈ 29.6 µM) | 4 µg/mL (≈ 14.8 µM) | 2 µg/mL (≈ 7.4 µM) | 66.3 mm | 32.7 mm | 46.7 mm | 27.3 mm | 49.3 mm | 42.7 mm | 72.7 mm | 30.7 mm | 61.7 mm | 46.3 mm | 66.7 mm | 29.3 mm | – | – | – |
| O=C(N[C@H](CO)[C@H](O)c1ccc([N+](=O)[O-])cc1)C(Cl)Cl [CHLORAMPHENICOL] | 2 µg/mL (≈ 6.19 µM) | 2 µg/mL (≈ 6.19 µM) | 4 µg/mL (≈ 12.4 µM) | 2 µg/mL (≈ 6.19 µM) | 77.2 mm | 29.3 mm | 53.2 mm | 36.3 mm | 53.4 mm | 57.2 mm | 71.2 mm | 35.3 mm | 74.2 mm | 50.4 mm | 75.4 mm | 30.3 mm | – | – | – |
| COc1ccc(-c2nnc3cc(C)nc(C)n23)cc1 | 16 µg/mL (≈ 62.9 µM) | 8 µg/mL (≈ 31.5 µM) | 16 µg/mL (≈ 62.9 µM) | 16 µg/mL (≈ 62.9 µM) | 41.3 mm | 11.7 mm | 20.7 mm | 27.3 mm | 20.3 mm | 39.7 mm | 40.7 mm | 12.3 mm | 59.7 mm | 21.3 mm | 40.7 mm | 12.3 mm | – | – | – |
| Cc1cc2nnc(-c3ccccc3)n2c(C)n1 | > 250 µg/mL | > 250 µg/mL | > 250 µg/mL | > 250 µg/mL | 10.7 mm | – | – | – | 8.33 mm | 8.34 mm | 12.7 mm | – | 13.3 mm | – | 11.3 mm | – | inactive | inactive | Activity [5]: inactive; Activity [10]: inactive; Activity (Escherichia coli [14]): inactive; Activity (Escherichia coli [16]): inactive |
| Cc1cc2nnc(-c3ccc(F)cc3)n2c(C)n1 | 16 µg/mL (≈ 66 µM) | 16 µg/mL (≈ 66 µM) | 32 µg/mL (≈ 132 µM) | 32 µg/mL (≈ 132 µM) | 41.8 mm | 9.67 mm | 23.4 mm | 13.7 mm | 15.3 mm | 22.3 mm | 23.2 mm | 10.1 mm | 41.7 mm | 14.3 mm | 26.4 mm | 11.3 mm | – | – | – |
| Cc1cc2nnc(-c3cccs3)n2c(C)n1 | 64 µg/mL (≈ 278 µM) | > 250 µg/mL | 64 µg/mL (≈ 278 µM) | > 250 µg/mL | 25.7 mm | – | 16.7 mm | – | 8.33 mm | 8.34 mm | 12.3 mm | 9.74 mm | 13.7 mm | 18.7 mm | 26.3 mm | 10.3 mm | inactive | inactive | – |
| COc1ccc(OC)c(-c2nnc3cc(C)nc(C)n23)c1 | > 250 µg/mL | > 250 µg/mL | 125 µg/mL (≈ 440 µM) | > 250 µg/mL | 13.7 mm | – | 8.33 mm | – | 9.66 mm | – | 13.7 mm | – | 11.3 mm | 10.7 mm | 19.3 mm | – | inactive | inactive | Activity (Bacillus subtilis [8]): inactive; Activity [10]: inactive; Activity (Escherichia coli [16]): inactive |

The next lines start with results.

| MIC [1] | MIC (Bacillus subtilis [4]) | MIC (Escherichia coli [11]) | MIC (Pseudomonas putida [12]) | SMILES | zone of inhibition at 100 µg/mL [2] | zone of inhibition at 10 µg/mL (Pseudomonas putida [3]) | zone of inhibition at 50 µg/mL [5] | zone of inhibition at 10 µg/mL (Bacillus subtilis [6]) | zone of inhibition at 50 µg/mL (Pseudomonas putida [7]) | zone of inhibition at 50 µg/mL (Bacillus subtilis [8]) | zone of inhibition at 100 µg/mL (Pseudomonas putida [9]) | zone of inhibition at 10 µg/mL [10] | zone of inhibition at 100 µg/mL (Bacillus subtilis [13]) | zone of inhibition at 50 µg/mL (Escherichia coli [14]) | zone of inhibition at 100 µg/mL (Escherichia coli [15]) | zone of inhibition at 10 µg/mL (Escherichia coli [16]) | Activity (Pseudomonas putida [3]) | Activity (Bacillus subtilis [6]) | other results |
| --- | --- | --- | --- | --- | --- | --- | --- | --- | --- | --- | --- | --- | --- | --- | --- | --- | --- | --- | --- |
| 125 µg/mL (≈ 483 µM) | > 250 µg/mL | > 250 µg/mL | > 250 µg/mL | Cc1cc2nnc(-c3ccc(Cl)cc3)n2c(C)n1 | 18.7 mm | – | 11.8 mm | – | 8.33 mm | – | 14.6 mm | – | 11.3 mm | – | 10.7 mm | – | inactive | inactive | Activity (Bacillus subtilis [8]): inactive; Activity [10]: inactive; Activity (Escherichia coli [14]): inactive; Activity (Escherichia coli [16]): inactive |
| 4 µg/mL (≈ 13.6 µM) | 4 µg/mL (≈ 13.6 µM) | 1 µg/mL (≈ 3.41 µM) | 4 µg/mL (≈ 13.6 µM) | Cc1cc2nnc(-c3ccc(Cl)cc3Cl)n2c(C)n1 | 66.3 mm | 29.3 mm | 48.3 mm | 30.7 mm | 49.7 mm | 47.7 mm | 67.7 mm | 29.7 mm | 67.3 mm | 63.7 mm | 75.3 mm | 37.3 mm | – | – | – |
| 32 µg/mL (≈ 134 µM) | 16 µg/mL (≈ 67.1 µM) | 16 µg/mL (≈ 67.1 µM) | 8 µg/mL (≈ 33.6 µM) | Cc1ccc(-c2nnc3cc(C)nc(C)n23)cc1 | 30.3 mm | 26.7 mm | 19.7 mm | 12.3 mm | 40.3 mm | 21.3 mm | 59.7 mm | 9.74 mm | 42.1 mm | 22.2 mm | 40.2 mm | 11.7 mm | – | – | – |
| > 250 µg/mL | 250 µg/mL (≈ 928 µM) | 250 µg/mL (≈ 928 µM) | 125 µg/mL (≈ 464 µM) | Cc1cc2nnc(-c3ccc([N+](=O)[O-])cc3)n2c(C)n1 | 16.7 mm | – | 10.3 mm | – | 12.3 mm | 9.66 mm | 19.7 mm | – | 14.3 mm | 8.33 mm | 13.7 mm | – | inactive | inactive | Activity [10]: inactive; Activity (Escherichia coli [16]): inactive |
